Test results published in patent US6753459B2, “Transgenic plants and methods for production thereof” (National Research Council of Canada, priority 1998, dated 2004).

What was measured:
Non-transformed plants [1] = assay: NAM spray of non-transformed tobacco plants; type: in vivo; conditions: 200 ug/mL NAM with 0.1% Tween 20, sprayed to runoff
Text: Transformed tobacco plants containing the pJH 121 construct described above are recovered and tested using standard analysis to determine the presence of the inserted vector. […] Plants were sprayed to runoff using a pressurized sprayer. […] Non-transformed plants are unaffected by the treatment.

[2] = tested on: Transformed Brassica napus plants containing the construct pJH 121; assay: NAM spray of transformed Brassica napus plants containing pJH121; type: in vivo; conditions: 200 ug/mL NAM with 0.1% Tween 20, sprayed to runoff at three-four leaf stage; 25 days after spraying
Text: (§1) Transformed Brassica napus plants containing the construct pJH 121 described above are recovered and tested using standard analysis to determine the presence of the inserted vector. […] Plants were sprayed to runoff using a pressurized sprayer.

non-transgenic varieties = assay: NAM spray of non-transgenic Brassica napus varieties; type: in vivo; conditions: 200 ug/mL NAM with 0.1% Tween 20, sprayed to runoff; 25 days after spraying
Text: as §1

[3] = tested on: Transformed Brassica napus plants containing the construct pJH 125 (35S oncogene 2); assay: NAM spray of transformed Brassica napus plants containing pJH125; type: in vivo; conditions: 200 ug/mL NAM with 0.1% Tween 20, sprayed to runoff
Text: (§2) Transformed Brassica napus plants containing the construct pJH 125 (35S oncogene 2) described above are recovered and tested using standard analysis to determine the presence of the inserted vector. […] Plants were sprayed to runoff using a pressurized sprayer. […] Non-transformed plants are unaffected by the treatment.

Non-transformed plants [4] = assay: NAM spray of non-transformed Brassica napus plants; type: in vivo; conditions: 200 ug/mL NAM with 0.1% Tween 20, sprayed to runoff
Text: as §2

[5] = tested on: plants from JH 2984 and JH 2973 transformation events (pJH 125); assay: NAM as scorable marker agent in segregating populations JH 2984 and JH 2973; type: in vivo, Brassica napus; conditions: NAM 1 mg/mL at the 2-3 leaf stage; 24 hours after application
Text: In this example, 20 plants from JH 2984 and JH 2973 transformation events were planted. These transgenic varieties were segregating 3:1 for the inserted plant transformation vector pJH 125. […] These plants were subjected to PCR analysis for the presence of the transformation vector.

[6] = tested on: Transgenic seedlings from JH2973 and JH2984 (pJH 125); assay: In vitro seed germination in the presence of NAM and NPA, transgenic seedlings; type: in vivo, Brassica napus
Text: (§3) Oncogene 2 can be used as a selectable marker in seed germination and embryo rescue in vitro assays, allowing for an even earlier determination of the presence of the transformation vector in segregating populations. […] The in vitro assay reduces the time and physical space (e.g. number of plants in growth chambers or under cultivation) required to identify homozygous transgenic lines, and the embryo rescue method allows selection and recovery of transformed seedlings which reduces generation to generation cycle time a breeding program.
(§4) Non-transformed segregants grew normally. […] The presence of the transformation vector in these plants was confirmed as above.

[7] = tested on: Non-transformed segregants; assay: In vitro seed germination in the presence of NAM and NPA, non-transformed segregants; type: in vivo, Brassica napus; conditions: germinated in vitro in the presence of NAM and the auxin transport inhibitor NPA
Text: as §3, §4

[8] = tested on: transgenic plants expressing the oncogene 2; assay: Spray screen for transgenic plants expressing the oncogene 2; type: in vivo
Text: A simple procedure is provided to screen for transgenic plants expressing the oncogene 2. […] Plants which have been affected are selected.

[9] = tested on: Plants without the oncogene 2; assay: Spray screen, plants without the oncogene 2; type: in vivo; conditions: sprayed with formulated mixture
Description: A simple procedure is provided to screen for transgenic plants expressing the oncogene 2. Plant populations are sprayed with the formulated mixture of napthalene acetamide. […] Plants without the oncogene 2 are unaffected. Plants which have been affected are selected. These recover within 72 hours and continue to grow and set seed. This phenotypic response is transmitted to subsequent generations.

[10] = tested on: Brassica napus hypocotyl explants (AG019, altered oil profiles); assay: Brassica napus transformation, NAA in callusing and recovery media; type: cell-based; conditions: NAA added to callusing and recovery media; Brassica napus with altered oil profiles
Description: After co-cultivation, the cells are […] to callusing and recovery media for 7 days. Explants are then placed on selection medium containing macro and micro nutrients, vitamins and growth regulators which induce shoot formation. The selection medium also contains a bacteriocide, for example carbenicillin. Preferably, it also contains a selection agent. The cells are grown on the selection medium until shoots (putative transformants) develop. […] To enhance regeneration, any shoots which develop are transferred on a regular basis to fresh selection media. Plantlets are placed on a shoot elongation media and finally a rooting media.
A single colony of Agrobacterium containing the plant transformation vector construct is transferred to AB minimal medium (Watson et al., 1975) for 48 hr at 28° C., which gives at approx. density of 6×10^8 cfu/mL. Hypocotyls are harvested from the germinated seeds and transferred to the Pre-Culture medium (MMOM, 3% (w/v) sucrose, 5.0 mg/L BAP, 0.7% (w/v) agar, and NAA 0.1 mg/L, pH 5.8) and incubated for 3 days under the TC conditions described above. Hypocotyl explants are then transferred from the Pre-Culture medium to the AB minimal medium containing the Agrobacterium strain of interest and incubated for at least 2 min. […]

Row | SMILES | effect of treatment on non-transformed plants (Non-transformed plants [1]) | growth of transgenic plants [2] | growth of non-transgenic varieties (non-transgenic varieties) | visual phenotype of transformed plants ([3]; 2 days after spraying) | visual phenotype of transformed plants ([3]; within 5 days) | effect of treatment on non-transformed plants (Non-transformed plants [4]) | visual phenotype of putative transgenics (confirmed by PCR) [5] | recovery of putative transgenic seedlings ([6]; after transfer to non-selective media) | phenotype of transgenic seedlings ([6]; germinated in vitro in the presence of NAM and the auxin transport inhibitor NPA) | growth of non-transformed segregants [7] | visual phenotype of transgenic plants ([8]; sprayed with formulated mixture, within 24 hours) | time to recovery of affected plants ([8]; sub-lethal spray, plants continue to grow and set seed) [h] | effect on plants without the oncogene 2 [9] | formation of transgenic shoots [10]
1 | NC(=O)Cc1cccc2ccccc12 [NAM, napthalene acetamide] | unaffected | remained stunted in growth | grew normally and flowered | leaves are drooping and the leaf margins curling | leaves are twisted and the plant shows typical auxin toxicity | unaffected | twisted leaves | recovered and grew normally | stunted seedlings, small cotyledons, stunted and swollen roots and callus at the root/shoot junction | grew normally | epinasty and obvious visual phenotypic changes | ≤ 72 | unaffected | 
2 | O=C(O)Cc1cccc2ccccc12 [NAA, napthalene acetic acid] |  |  |  |  |  |  |  |  |  |  |  |  |  | greatly increases the formation of transgenic shoots
